Key:
[1] = target: Factor Xa (Homo sapiens, UniProt P00742); experiment: Factor Xa inhibition; format: biochemical
[2] = Oral exposure; format: in vivo
[3] = Stability study on crystalline forms (temperature, humidity, light); format: physicochemical; settings: for Morphological stability: high relative humidity (above 70%)
Method: Notes: % expressed with reference to material stored at −70° C.
% RH means percentage relative humidity.

[4] = Behaviour of the solid in the presence of water; format: physicochemical; settings: in the presence of water / suspended in distilled water, stirred 24 hours
Method: Stability in the presence of water is desirable in a product intended to be formulated in a pharmaceutical composition using a process that brings it into contact with water, such as a wet granulation process used in the preparation of a tablet.
1.5 g of Form 1 of 1-(indole-6-carbonyl-D-phenylglycinyl)-4-(1-methylpiperidin-4-yl)piperazine difumarate was suspended in 10 ml of distilled water and stirred for 24 hours. The suspension thickened after 5-6 hours, but stirring was continued for the remaining time. The suspension was centrifuged to isolate the solid. The solid was washed with cyclohexane and dried at ambient temperature under vacuum.

[5] = Vapor pressure isotherm determination / hygroscopicity; format: physicochemical
From the text: The mono hydrochloride salt of 1-(indole-6-carbonyl-D-phenylglycinyl)-4-(1-methylpiperidin-4-yl)piperazine has also been prepared. The monohydrochloride salt was initially obtained as an amorphous solid. This solid was cycled through a vapor pressure isotherm determination, in which the solid initially deliquesced, then dehydrated.
Using a microbalance flow system, the original material was cycled through a vapor pressure isotherm determination, where the material deliquesced, then allowed to deydrate.

[6] = 40° C./75% RH, 7 Days, difumarate
[7] = 40° C./75% RH, 28 Days, difumarate

Chain of Factor Xa (P00742 235-488 limits assumed): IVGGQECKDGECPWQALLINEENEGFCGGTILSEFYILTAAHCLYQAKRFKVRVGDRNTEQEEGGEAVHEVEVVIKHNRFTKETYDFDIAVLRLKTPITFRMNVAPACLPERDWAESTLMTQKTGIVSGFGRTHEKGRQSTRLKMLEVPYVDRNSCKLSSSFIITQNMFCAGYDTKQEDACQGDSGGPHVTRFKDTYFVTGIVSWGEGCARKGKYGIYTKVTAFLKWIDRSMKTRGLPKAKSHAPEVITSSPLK
Chain of Factor Xa (P00742 41-179 partner limits assumed): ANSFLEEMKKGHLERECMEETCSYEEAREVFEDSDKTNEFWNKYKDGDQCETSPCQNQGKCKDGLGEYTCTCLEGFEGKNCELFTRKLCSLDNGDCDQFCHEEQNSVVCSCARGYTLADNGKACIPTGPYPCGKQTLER

Row | Compound | Stability study, % expressed with reference to material stored at −70° C. [3, 6] [%] | Stability study, % expressed with reference to material stored at −70° C. [3, 7] [%] | Stability study, % expressed with reference to material stored at −70° C. ([3]; 70° C., 7 Days, difumarate) [%] | Stability study, % expressed with reference to material stored at −70° C. ([3]; 70° C., 28 Days, difumarate) [%] | Morphological stability [3] | Stability of the crystalline form in the presence of water [4] | also measured
1 | CN1CCC(N2CCN(C(=O)[C@H](NC(=O)c3ccc4cc[nH]c4c3)c3ccccc3)CC2)CC1 [1-(indole-6-carbonyl-D-phenylglycinyl)-4-(1-methylpiperidin-4-yl)piperazine] | – | – | – | – | – | – | Inhibition of Factor Xa [1]: potent and selective inhibitor; Oral exposure [2]: good
2 | CN1CCC(N2CCN(C(=O)[C@H](NC(=O)c3ccc4cc[nH]c4c3)c3ccccc3)CC2)CC1.O=C(O)/C=C/C(=O)O.O=C(O)/C=C/C(=O)O [Form 1, 1-(indole-6-carbonyl-D-phenylglycinyl)-4-(1-methylpiperidin-4-yl)piperazine difumarate] | 99.6 | 99.5 | 99.0 | 100.2 | morphologically stable | converted into Form 2 | Stability study, % expressed with reference to material stored at −70° C. ([3]; 40° C., 7 Days): 100.5%; Stability study, % expressed with reference to material stored at −70° C. ([3]; 40° C., 28 Days): 99.8%; Stability study, % expressed with reference to material stored at −70° C. ([3]; 50° C., 7 Days): 99.3%; Stability study, % expressed with reference to material stored at −70° C. ([3]; 50° C., 28 Days): 99.4%; Stability study, % expressed with reference to material stored at −70° C. ([3]; Light, 7 Days): 99.7%; Stability study, % expressed with reference to material stored at −70° C. ([3]; Light, 28 Days): 98.9%
3 | CN1CCC(N2CCN(C(=O)[C@H](NC(=O)c3ccc4cc[nH]c4c3)c3ccccc3)CC2)CC1.O=C(O)/C=C/C(=O)O.O=C(O)/C=C/C(=O)O [Form 2, 1-(indole-6-carbonyl-D-phenylglycinyl)-4-(1-methylpiperidin-4-yl)piperazine difumarate] | 99.3 | 99.6 | 99.1 | 99.0 | morphologically stable | – | –
4 | CN1CCC(N2CCN(C(=O)[C@H](NC(=O)c3ccc4cc[nH]c4c3)c3ccccc3)CC2)CC1 [chloroform solvate, 1-(indole-6-carbonyl-D-phenylglycinyl)-4-(1-methylpiperidin-4-yl)piperazine] | – | – | – | – | – | tended to convert into a gel | –
5 | CN1CCC(N2CCN(C(=O)[C@H](NC(=O)c3ccc4cc[nH]c4c3)c3ccccc3)CC2)CC1.Cl [compound 1, 1-(indole-6-carbonyl-D-phenylglycinyl)-4-(1-methylpiperidin-4-yl)piperazine hydrochloride] | – | – | – | – | – | – | Hygroscopicity ([5]; amorphous and crystalline material): hygroscopic; Behaviour of the solid in vapor pressure isotherm determination ([5]; amorphous solid, microbalance flow system): deliquesced

— US20040162295A1, “Pharmaceutical compound” (priority 2001, published 2004)
